Assays:
human Edg-1(S1P1) [1] = target: T1, human Edg-1(S1P1) (Homo sapiens, UniProt P21453); experiment: Membrane system binding test: inhibition of [33P]-S1P binding to the membrane fraction of Edg-1(S1P1) gene transferred HEK-293 cells; conditions: 10 μM compound, [33P]-S1P 0.1 nM, membrane fraction of Edg-1(S1P1) gene transferred HEK-293 cells; for inhibition at 10 µM: read-out: Membrane system binding test % inhibition (10 μM)
T1 construct: expressed in transfected cells; host or cells: HEK-293
Procedure: The membrane fraction was obtained by treating the cells with a solubilizing buffer (1 mM Tris/HCl, pH 7.2) for 10 minutes on ice, centrifuging the system (1000×g, 5 min) to remove insoluble fractions, and then centrifuging the system (40000×g, 30 min, 4° C.). The resulting membrane fraction was dissolved in a binding buffer (20 mM Tris-HCl, pH 7.4, 100 mM NaCl, 15 mM NaF, 2 mM deoxypyridoxine, 4 mg/mL fatty acid-free BSA), and then [^33P]-S1P (produced by ARC, end concentration 0.1 nM) and a DMSO solution of the test compound (end concentration of the compound: 10^−5 M, end concentration of DMSO: 0.1%) were added, followed by stirring the mixture and subsequently treating it for 1 hour at 30° C. Using a harvester, the membrane fraction was harvested onto unifilter-96GF/C filter (produced by Perkin-Elmer). Then, the filter with the membrane fraction was washed 4 times with the binding buffer, and the filter was dried. To the filter, 25 μL Microscint 0 (produced by Perkin-Elmer) was added, and the assay system was measured for radioactivity by means of Top Count NXT (Packard). Based on the radioactivity, the amount (A) of binding of [^33P]-S1P to the membrane fraction upon addition of the compound was calculated.
The same procedure was performed in the absence of the test compound, and the amount (B) of binding of [^33P]-S1P was calculated. Moreover, the same procedure was performed in the absence of the test compound with the use of HEK-293 cells, to which the Edg-1(S1P1) gene had not been transferred, and the background amount (C) of binding of [^33P]-S1P was calculated.
The Edg-1(S1P1) binding inhibition rate of the compound, calculated from the following equation, is shown in […]

human Edg-1(S1P1) [2] = target: T1, human Edg-1(S1P1); experiment: Cell system binding test: inhibition of [3H]-S1P binding to Edg-1(S1P1) gene transferred HEK-293 cells; conditions: 10 μM compound, [3H]-S1P 10 nM, read-out: Cell system binding test % inhibition (10 μM)

T1 sequence (P21453 whole entry): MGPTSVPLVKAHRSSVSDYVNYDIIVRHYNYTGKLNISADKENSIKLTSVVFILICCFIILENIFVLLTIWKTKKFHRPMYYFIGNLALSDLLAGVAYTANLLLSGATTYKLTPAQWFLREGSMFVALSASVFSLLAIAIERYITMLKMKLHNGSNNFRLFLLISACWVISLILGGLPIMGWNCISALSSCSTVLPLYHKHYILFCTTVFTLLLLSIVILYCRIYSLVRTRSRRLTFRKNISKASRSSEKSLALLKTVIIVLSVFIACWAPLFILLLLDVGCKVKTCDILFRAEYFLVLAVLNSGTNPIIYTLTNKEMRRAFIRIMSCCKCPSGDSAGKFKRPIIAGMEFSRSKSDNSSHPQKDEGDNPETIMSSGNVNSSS

Structure (SMILES)	inhibition at 10 µM (human Edg-1(S1P1) [1]) [%]	inhibition at 10 µM (human Edg-1(S1P1) [2]) [%]	Membrane system binding test % inhibition (10 μM) (human Edg-1(S1P1) [1]) [%]
CCn1c(SCCNC(=O)c2ccncc2)nnc1[C@@H](C)NS(=O)(=O)c1ccc(Cl)cc1 [Compound 74]	109	93.6	
CCN(CCSc1nnc([C@@H](C)NS(=O)(=O)c2ccc(Cl)cc2)n1CC)c1ccccc1 [Compound 75]	99.4	92.7	
CCn1c(SCCC2CCN(C)CC2)nnc1[C@@H](C)NS(=O)(=O)c1ccc(Cl)cc1 [Compound 76]	101	97.3	
CCn1c(SCCc2ccc(N(C)C)cc2)nnc1[C@@H](C)NS(=O)(=O)c1ccc(Cl)cc1 [Compound 77]	96.4	89.4	
CCn1c(SCCN2CCCC2=O)nnc1[C@@H](C)NS(=O)(=O)c1ccc(Cl)cc1 [Compound 78]	96.5	83	
CCn1c(SCCCN2CCCC2=O)nnc1[C@@H](C)NS(=O)(=O)c1ccc(Cl)cc1 [Compound 79]	94.9	84.7	
CCn1c(SCCS(=O)(=O)c2ccccc2)nnc1[C@@H](C)NS(=O)(=O)c1ccc(Cl)cc1 [Compound 80]	87.5	86.2	
CCn1c(SCc2ccc([N+](=O)[O-])cc2)nnc1[C@@H](C)NS(=O)(=O)c1ccc(Cl)cc1 [Compound 81]	110	87.6	
CCn1c(SCc2ccc(NC(C)=O)cc2)nnc1[C@@H](C)NS(=O)(=O)c1ccc(Cl)cc1 [Compound 82]	90.4	84.7	
CCn1c(SCC(N)=O)nnc1[C@@H](C)NS(=O)(=O)c1ccc(Cl)cc1 [Compound 83]	99.5	85.6	
CCn1c(SCCn2ccnc2)nnc1[C@@H](C)NS(=O)(=O)c1ccc(Cl)cc1 [Compound 84]	100	87.9	
CCn1c(SCCc2c[nH]c3ccccc23)nnc1[C@@H](C)NS(=O)(=O)c1ccc(Cl)cc1 [Compound 85]	106	90.4	
CCn1c(SCCC23CC4CC(CC(C4)C2)C3)nnc1[C@@H](C)NS(=O)(=O)c1ccc(Cl)cc1 [Compound 86]	110	93.4	
CCn1c(SCCCC(C)=O)nnc1[C@@H](C)NS(=O)(=O)c1ccc(Cl)cc1 [Compound 87]	84.7	82.7	
CCn1c(SCCC(C)(C)C)nnc1[C@@H](C)NS(=O)(=O)c1ccc(Cl)cc1 [Compound 88]	97.1	87.6	
C=CCSc1nnc(C(C)NS(=O)(=O)c2ccc(Cl)cc2)n1C (stereo not drawn) [Compound 91]	47.4	72.9	
C=CCSc1nnc([C@@H](C)NS(=O)(=O)c2ccc(Cl)cc2)n1CCC [Compound 95]	60.2	94	
C=CCSc1nnc([C@@H](C)NS(=O)(=O)c2ccc(Cl)cc2)n1C(C)C [Compound 97]	52.5	88.9	
C=CCSc1nnc(CNS(=O)(=O)c2ccc(Cl)cc2)n1CC [Compound 104]	42.1	99.5	
C=CCSc1nnc([C@@H](CC)NS(=O)(=O)c2ccc(Cl)cc2)n1C [Compound 106]		86.9	52.5
C=CCSc1nnc(C(CC)NS(=O)(=O)c2ccc(Cl)cc2)n1CC (stereo not drawn) [Compound 109]	100	93	
C=CCSc1nnc([C@@H](CC)NS(=O)(=O)c2ccc(Cl)cc2)n1CCC [Compound 113]		84	46.3
C=CCSc1nnc([C@@H](CC)NS(=O)(=O)c2ccc(Cl)cc2)n1C(C)C [Compound 117]	83.8	93.6	
C=CCSc1nnc([C@@H](Cc2ccccc2)NS(=O)(=O)c2ccc(Cl)cc2)n1C [Compound 134]	84.8	88.8	
C=CCSc1nnc(C(Cc2ccccc2)NS(=O)(=O)c2ccc(Cl)cc2)n1C (stereo not drawn) [Compound 135]	96.9	86.7	
C=C(C)CSc1nnc(C(Cc2ccccc2)NS(=O)(=O)c2ccc(Cl)cc2)n1C (stereo not drawn) [Compound 136]	94.7	103	
Cn1c(SCc2ccc(Cl)c(Cl)c2)nnc1C(Cc1ccccc1)NS(=O)(=O)c1ccc(Cl)cc1 (stereo not drawn) [Compound 137]	57.1	99	

— US8022225B2, “Triazole derivative” (Taisho Pharmaceutical Co., Ltd, priority 2004, dated 2011)
